# pIC50: −log10 of the molar value. Activity calls are given as the source filed them. The rule behind the calls is not given here.
# System: Saccharomyces cerevisiae lifespan shortening, growth inhibition
# Assay: yeast lifespan shortening compounds, dose response (AID 849);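 note: yeast growth read as optical density after two days at 30 degrees C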
SMILES,pIC50,IC50
C=CCc1c(C)c(C#N)c2nc3ccccc3n2c1NCCN(C)C,4.35,–
Cc1ccc(-c2nn3c(C)nnc3s2)cc1NC(=O)c1ccc(OC(C)C)cc1,–,> 100 µM (inactive)
CC1=C(C)/C(=N\OS(=O)(=O)c2ccccc2)C=CC1=O,4.52,–
O=S(=O)(Nc1ccc(-n2cccc2)cc1)c1ccc(Cl)cc1Cl,–,> 100 µM (inactive)
CNC(=O)Oc1cccc(-c2cn3cc(OC(=O)NC)ccc3n2)c1,4.99,–
Cc1nc(Nc2ccc(Cl)c(Cl)c2)sc1C(=O)Nc1ccccc1,–,> 100 µM (inactive)
CC(NC(=O)/C(C#N)=C/c1ccc(Cl)c([N+](=O)[O-])c1)c1ccccc1 (configuration not stated),–,> 100 µM (inactive)
CCOC(=O)c1cc([N+](=O)[O-])c([N+](=O)[O-])cc1NC(C)=O,> 7.01,–
CC1=NNC(=O)/C1=C\c1cn(-c2ccccc2)nc1-c1cccs1,4.44,–
O=c1c2sc(-c3ccccc3)cc2nc2n1CCC2,4.86,–
c1cnc2c(c1)ccc1cccnc12,4.88,–
Cc1cc(C)c2c(N=NN(C)C)[nH]nc2n1,4.91,–
NC(N)=N/N=C/c1ccc(OCc2ccc(Cl)cc2Cl)cc1,–,> 100 µM (inactive)
Cc1ccc(/C=C/C(=O)c2ccccc(=O)c2O)cc1C,5.28,–
Nc1ccc(O)c2c1C(=O)c1ccccc1C2=O,4.55,–
CCc1ccc2c(c1)C1(NN=C(c3ccc(C)cc3)S1)C(=O)N2 (configuration not stated),4.62,–
c1ccc(-c2nnc(-c3ccccn3)nc2NC2CCCCC2)cc1,4.90,–
CCOC(=O)c1c(/N=C/c2cccc([N+](=O)[O-])c2O)sc(C)c1C,4.73,–
Cc1onc(-c2ccccc2)c1C(=O)NC(=S)NNC(=O)c1ccc(O)cc1O,–,> 100 µM (inactive)

SMILES,pIC50,IC50
COc1ccc(C(=O)/C=C/Nc2ccc(C)cn2)cc1OC,–,> 100 µM (inactive)
COc1ccc(CCNC(=O)c2cnn3c(C(F)F)cc(C)nc23)cc1OC,–,> 100 µM (inactive)
O=C(CCc1ccccc1)NNC(=S)NC(=O)c1ccccc1,–,> 100 µM (inactive)
CCCn1c(C)cc(C(=O)COC(=O)c2ccc[nH]c2=O)c1C,4.45,–
CNC(=S)N/N=C(\C)c1ccc(N2CCOCC2)cc1,–,> 100 µM (inactive)
Cc1ccc(NC(=O)CSC2=C(C#N)C(c3ccc4c(c3)OCO4)C3=C(CCCC3=O)N2)c(C)c1 (configuration not stated),–,> 100 µM (inactive)
O=S(=O)(Nc1ccc(-c2nc3ccccc3o2)cc1)c1ccccc1,–,> 100 µM (inactive)
Nc1nsc2ccccc12,4.61,–
CC1=C(C)/C(=N\OS(=O)(=O)c2ccc(C)cc2)C=CC1=O,4.90,–
O=C(CSC1=NCCS1)N1CCN(c2ccc(Cl)cc2)CC1,–,> 100 µM (inactive)
Cc1ccc(Oc2nc(CN3CCOCC3)nc3sc4c(c23)CCC(C)C4)cc1C (configuration not stated),4.58,–
O=C(Oc1ccc(Cl)c2cccnc12)c1ccco1,4.84,–
Cc1c(C(=O)O)cccc1-c1ccc(/C=N/Nc2ccc(Br)cc2)o1,–,> 100 µM (inactive)
Cc1cc(C)nc(N/N=C/C2=C(N3CCOCC3)C(=C\c3ccc(Cl)cc3)/CC2)n1,–,> 100 µM (inactive)
Cc1nn(-c2ccccc2)c2sc(-c3n[nH]c(=S)o3)cc12,–,> 100 µM (inactive)
Cc1nn2c3ccccc3nc2c2ccccc12,4.38,–
CC(C)CNC(=O)CN(C1CCCCC1)S(C)(=O)=O,–,> 100 µM (inactive)
CCn1c(=O)c(C(=O)Nn2c(C)nc3ccccc3c2=O)c(O)c2ccccc21,4.81,–
CCCOC(=O)c1ccc(Oc2cn[nH]c2-c2ccc(OCC)cc2O)cc1,–,> 100 µM (inactive)

SMILES,pIC50,IC50
COc1ccc(NC(=O)C2CCCN2S(=O)(=O)c2cccc3cccnc23)c(OC)c1 (configuration not stated),4.39,–
S=C(NCc1ccc(Cl)cc1)NC12CC3CC(CC(C3)C1)C2,–,> 100 µM (inactive)
CC(C)N=c1scc(-c2ccco2)n1/N=C/c1ccc(O)c(O)c1,4.31,–
Cc1csc(NC(=O)Cc2coc3cc(C)c(C(C)C)cc23)n1,–,> 100 µM (inactive)
CC1=NOC(=O)/C1=C\c1ccc(-c2ccc(Cl)cc2Cl)o1,–,> 100 µM (inactive)
COc1ccc(OCc2nnc3n2N=C(c2ccc(OC)cc2)CS3)cc1,–,> 100 µM (inactive)
CC1(C)C(C=C(Cl)Cl)C1C(=O)Nc1ccc([N+](=O)[O-])cc1 (configuration not stated),4.29,–
C=CCN1C(C(=O)c2ccccc2)=C(OC(=O)COc2ccccc2)c2ccccc2S1(=O)=O,4.57,–
CCCc1ccc(Oc2cn[nH]c2-c2ccc(O)c(C)c2O)cc1,5.18,–
COc1ccc2[nH]c3c(Cl)ncnc3c2c1,4.73,–
Cn1c2ccccc2c(=O)n2c(=O)c3ccccc3cc12,4.28,–
Cc1ccc(/C=C2\C(=O)Nc3ccccc32)o1,–,> 100 µM (inactive)
c1ccc2c(c1)C(=Nn1cnnc1)c1ccccc1-2,–,> 100 µM (inactive)
COc1ccc(/C=C2/C(=O)ON=C2c2ccccc2)cc1OC,4.48,–
N/C(Cc1ccccc1)=N\OC(=O)c1cccc2ccccc12,4.97,–
Cc1ccc(C(=O)O)cc1N=Cc1cc(Br)cc(Br)c1O,4.43,–
O=C1c2ccccc2NC(c2ccc(-c3ccc(Br)cc3)o2)N1O (configuration not stated),4.60,–
CCCCCC/C(=N/O)c1ccccn1,4.99,–
CCOC(=O)C1C(C)N=C2SCC(=O)N2C1c1cccc(Br)c1 (configuration not stated),–,> 100 µM (inactive)
